Source: patent US8461328B2, “Tricyclic heterocyclic compounds, compositions and methods of use thereof” (Genentech, Inc., priority 2010, dated 2013)

Legend:
Type in all cases: biochemical
JAK3 = target: T1, JAK3 (Homo sapiens, UniProt P52333); test: JAK3 inhibition (Table 4); settings: read-out: JAK3 Ki
T1 construct: made in house; host or cells: SF9 insect cells (baculovirus)

JAK1 = target: T2, JAK1 (Homo sapiens, UniProt P23458); test: JAK1 inhibition (Table 4); settings: read-out: JAK1 Ki
T2 construct: made in house; host or cells: SF9 insect cells (baculovirus)

JAK2 = target: T3, JAK2 (Homo sapiens, UniProt O60674); test: JAK2 inhibition (Table 4); settings: read-out: JAK2 Ki
T3 construct: made in house; host or cells: SF9 insect cells (baculovirus)

TYK2 = target: T4, TYK2 (Homo sapiens, UniProt P29597); test: TYK2 inhibition (Table 4)
T4 construct: made in house; host or cells: SF9 insect cells (baculovirus)
T4 sequence (P29597 873-1187): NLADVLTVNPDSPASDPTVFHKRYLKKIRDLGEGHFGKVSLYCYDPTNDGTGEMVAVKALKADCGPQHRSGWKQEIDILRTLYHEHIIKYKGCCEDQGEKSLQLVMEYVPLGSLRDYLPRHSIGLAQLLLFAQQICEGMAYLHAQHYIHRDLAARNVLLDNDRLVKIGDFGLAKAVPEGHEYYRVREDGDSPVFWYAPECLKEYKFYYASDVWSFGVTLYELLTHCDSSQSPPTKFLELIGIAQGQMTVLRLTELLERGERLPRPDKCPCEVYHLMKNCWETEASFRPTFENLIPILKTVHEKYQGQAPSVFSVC

T2 sequence (P23458 852-1154): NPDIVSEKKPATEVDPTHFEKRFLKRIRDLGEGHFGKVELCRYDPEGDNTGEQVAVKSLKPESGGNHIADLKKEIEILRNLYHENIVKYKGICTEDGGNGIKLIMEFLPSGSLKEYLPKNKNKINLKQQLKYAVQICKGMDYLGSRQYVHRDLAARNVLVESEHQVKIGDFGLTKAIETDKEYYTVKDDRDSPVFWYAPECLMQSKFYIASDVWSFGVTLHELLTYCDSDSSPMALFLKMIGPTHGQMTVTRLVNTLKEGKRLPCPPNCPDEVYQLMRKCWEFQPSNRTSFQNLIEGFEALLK
T3 sequence (O60674 812-1132): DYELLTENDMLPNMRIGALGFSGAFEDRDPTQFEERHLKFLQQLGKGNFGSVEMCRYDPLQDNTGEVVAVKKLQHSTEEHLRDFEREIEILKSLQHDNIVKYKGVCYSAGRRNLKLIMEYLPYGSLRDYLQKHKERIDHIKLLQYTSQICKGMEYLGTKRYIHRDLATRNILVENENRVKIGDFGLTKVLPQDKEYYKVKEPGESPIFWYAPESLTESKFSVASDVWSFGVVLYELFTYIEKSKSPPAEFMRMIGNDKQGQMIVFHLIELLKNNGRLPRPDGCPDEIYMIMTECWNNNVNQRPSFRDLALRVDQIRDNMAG
T1 sequence (P52333 783-1124): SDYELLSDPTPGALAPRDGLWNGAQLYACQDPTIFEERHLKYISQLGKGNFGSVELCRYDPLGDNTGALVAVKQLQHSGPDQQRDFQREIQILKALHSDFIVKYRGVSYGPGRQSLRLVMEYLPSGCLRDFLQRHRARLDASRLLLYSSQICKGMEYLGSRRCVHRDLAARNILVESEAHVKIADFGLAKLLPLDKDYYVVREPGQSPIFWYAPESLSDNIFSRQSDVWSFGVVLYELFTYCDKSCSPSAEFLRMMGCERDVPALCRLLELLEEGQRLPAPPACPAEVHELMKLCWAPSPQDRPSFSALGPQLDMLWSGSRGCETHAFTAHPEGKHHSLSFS

`CC(F)CN1CCC(n2c([C@@H](C)O)nc3cnc4[nH]ccc4c32)CC1` (stereo partly drawn) [Example 697, (R)-1-{1-[1-(2-Fluoro-propyl)-piperidin-4-yl]-1,6-dihydro-1,2,3,5,6-tetraaza-as-indacen-2-yl}-ethanol] showed a Ki (JAK3) of 36.1 nM, a Ki (JAK1) of 3.1 nM and a Ki (JAK2) of 64.8 nM. For the same compound, the Ki (TYK2) was 32.5 nM.
For `OCc1nc2cnc3[nH]ccc3c2n1C1CCOCC1` [Example 542, [1-(Tetrahydro-pyran-4-yl)-1,6-dihydro-1,3,5,6-tetraaza-as-indacen-2-yl]-methanol], the Ki (JAK3) was 51 nM, the Ki (JAK1) was 18.2 nM and the Ki (JAK2) was 76.6 nM. The Ki (TYK2) was 27.3 nM.
`N#CCCN1CC[C@@H](n2cnc3cnc4[nH]ccc4c32)C1` [Example 187, 3-[(R)-3-(6H-1,2,3,5,6-Tetraaza-as-indacen-1-yl)-pyrrolidin-1-yl]-propionitrile] showed a Ki (JAK3) of 57.6 nM, a Ki (JAK1) of 10.1 nM and a Ki (JAK2) of 22.3 nM. For the same compound, the Ki (TYK2) was 58.8 nM.
Work on `Cn1ccc(CCc2nc3cnc4[nH]ccc4c3n2C2CCN(CCC#N)CC2)n1` [Example 814, 3-(4-{2-[2-(1-Methyl-1H-pyrazol-3-yl)-ethyl]-6H-1,3,5,6-tetraaza-as-indacen-1-yl}-piperidin-1-yl)-propionitrile] yielded a Ki (JAK3) of 90.7 nM, a Ki (JAK1) of 11.2 nM and a Ki (JAK2) of 88.4 nM. For the same compound, the Ki (TYK2) was 580 nM.
Work on `COCCOC(=O)N[C@H]1CC[C@H](n2cnc3cnc4[nH]ccc4c32)CC1` [Example 356, [4-(6H-1,3,5,6-Tetraaza-as-indacen-1-yl)-cyclohexyl]-carbamic acid 2-methoxy-ethyl ester] yielded a Ki (JAK3) of 209 nM, a Ki (JAK1) of 10.6 nM and a Ki (JAK2) of 28.5 nM. It also gave a Ki (TYK2) of 192 nM.
For `CS(=O)(=O)NCc1nc2cnc3[nH]ccc3c2n1C1CCN(Cc2ccccc2)CC1(F)F` (racemic) [Example 946, N-[1-(1-Benzyl-3,3-difluoro-piperidin-4-yl)-1,6-dihydro-1,3,5,6-tetraaza-as-indacen-2-ylmethyl]-methanesulfonamide], the Ki (JAK3) was 12.1 nM, the Ki (JAK1) was 1.43 nM and the Ki (JAK2) was 9.65 nM. The Ki (TYK2) was 156 nM.
`CC(C)(C)OC(=O)N1CCC(n2cnc3cnc4[nH]ccc4c32)CC1` [Example 124, 4-(6H-1,2,3,5,6-Tetraaza-as-indacen-1-yl)-piperidine-1-carboxylic acid tert-butyl ester] was tested, and the Ki (JAK3) was 845 nM, the Ki (JAK1) was 24.5 nM and the Ki (JAK2) was 33.2 nM. It also gave a Ki (TYK2) of 225 nM.
For `Cc1nc2cnc3[nH]ccc3c2n1[C@H]1CC[C@H](NC(=O)N(C)C)CC1` [Example 604, Trans 1,1-dimethyl-3-[4-(2-methyl-6H-1,2,3,5,6-tetraaza-as-indacen-1-yl)-cyclohexyl]-urea], the Ki (JAK3) was 249 nM, the Ki (JAK1) was 16.4 nM and the Ki (JAK2) was 46 nM. For the same compound, the Ki (TYK2) was 244 nM.
In the case of `CCOC(=O)NCc1nc2cnc3[nH]ccc3c2n1C1CCN(CCC#N)CC1` [Example 493, {1-[1-(2-Cyano-ethyl)-piperidin-4-yl]-1,6-dihydro-1,3,5,6-tetraaza-as-indacen-2-ylmethyl}-carbamic acid ethyl ester], the Ki (JAK3) is reported as 80.2 nM, the Ki (JAK1) is reported as 11.3 nM and the Ki (JAK2) is reported as 36.2 nM. The Ki (TYK2) was 121 nM.
Work on `CC(O)c1nc2cnc3[nH]ccc3c2n1C1CCN(S(C)(=O)=O)CC1` (racemic) [Example 527, 1-[1-(1-Methanesulfonyl-piperidin-4-yl)-1,6-dihydro-1,3,5,6-tetraaza-as-indacen-2-yl]-ethanol] yielded a Ki (JAK3) of 189 nM, a Ki (JAK1) of 107 nM and a Ki (JAK2) of 200 nM. For the same compound, the Ki (TYK2) was 65.2 nM.
In the case of `OC(CN1CCC(n2cnc3cnc4[nH]ccc4c32)CC1)(C(F)(F)F)C(F)(F)F` [Example 174, 1,1,1,3,3,3-Hexafluoro-2-[4-(6H-1,2,3,5,6-tetraaza-as-indacen-1-yl)-piperidin-1-ylmethyl]-propan-2-ol], the Ki (JAK3) is reported as 87.4 nM, the Ki (JAK1) is reported as 1.58 nM and the Ki (JAK2) is reported as 2.66 nM. It also gave a Ki (TYK2) of 7.53 nM.
For `CN(CCO)C(=O)Cc1nc2cnc3[nH]ccc3c2n1C1CCCOC1` (racemic) [Example 969, N-(2-Hydroxy-ethyl)-N-methyl-2-[1-(tetrahydro-pyran-3-yl)-1,6-dihydro-1,3,5,6-tetraaza-as-indacen-2-yl]-acetamide], the Ki (JAK3) was 511 nM, the Ki (JAK1) was 171 nM and the Ki (JAK2) was 1090 nM. The Ki (TYK2) was 1140 nM.
With `Cc1nc2cnc3[nH]ccc3c2n1C(C)CCO` (racemic) [Example 416, 3-(2-Methyl-6H-1,3,5,6-tetraaza-as-indacen-1-yl)-butan-1-ol] the Ki (JAK3) was 48.8 nM, the Ki (JAK1) was 33.6 nM and the Ki (JAK2) was 126 nM. The Ki (TYK2) was 339 nM.
For `c1ccc(CN2CCC(n3c(Cn4cccn4)nc4cnc5[nH]ccc5c43)CC2)cc1` [Example 201, 1-(1-Benzyl-piperidin-4-yl)-2-pyrazol-1-ylmethyl-1,6-dihydro-1,2,3,5,6-tetraaza-as-indacene], the Ki (JAK3) was 12.2 nM, the Ki (JAK1) was 7.28 nM and the Ki (JAK2) was 25 nM. The Ki (TYK2) was 488 nM.
Work on `CCCS(=O)(=O)N1CCC(n2c(Cc3conc3C)nc3cnc4[nH]ccc4c32)CC1` [Example 381, 2-(3-Methyl-isoxazol-4-ylmethyl)-1-[1-(propane-1-sulfonyl)-piperidin-4-yl]-1,6-dihydro-1,3,5,6-tetraaza-as-indacene] yielded a Ki (JAK3) of 1840 nM, a Ki (JAK1) of 87.1 nM and a Ki (JAK2) of 1270 nM. For the same compound, the Ki (TYK2) was 1990 nM.
`C[C@@H](O)c1nc2cnc3[nH]ccc3c2n1[C@H]1CC[C@H](NCC(F)(F)F)CC1` [Example 614, Trans (R)-1-{1-[4-(2,2,2-trifluoro-ethylamino)-cyclohexyl]-1,6-dihydro-1,2,3,5,6-tetraaza-as-indacen-2-yl}-ethanol] showed a Ki (JAK3) of 63.3 nM, a Ki (JAK1) of 0.76 nM and a Ki (JAK2) of 13.2 nM. It also gave a Ki (TYK2) of 3.01 nM.
With `O=C(Cc1nc2cnc3[nH]ccc3c2n1C1CCCOC1)N1CCN(CCO)CC1` (racemic) [Example 976, 1-[4-(2-Hydroxy-ethyl)-piperazin-1-yl]-2-[1-(tetrahydro-pyran-3-yl)-1,6-dihydro-1,3,5,6-tetraaza-as-indacen-2-yl]-ethanone] the Ki (JAK3) was 208 nM, the Ki (JAK1) was 32.1 nM and the Ki (JAK2) was 405 nM. It also gave a Ki (TYK2) of 299 nM.
Work on `CCn1ncc(CN2CCC(n3c([C@@H](C)O)nc4cnc5[nH]ccc5c43)CC2)c1C` [Example 900, (R)-1-{1-[1-(1-Ethyl-5-methyl-1H-pyrazol-4-ylmethyl)-piperidin-4-yl]-1,6-dihydro-1,3,5,6-tetraaza-as-indacen-2-yl}-ethanol] yielded a Ki (JAK3) of 130 nM, a Ki (JAK1) of 18 nM and a Ki (JAK2) of 494 nM. It also gave a Ki (TYK2) of 2010 nM.
In the case of `CCN1CC[C@@H](n2c(CCNS(=O)(=O)C(C)C)nc3cnc4[nH]ccc4c32)[C@@H](F)C1` [Example 810, Propane-2-sulfonic acid {2-[1-((3S,4R)-1-ethyl-3-fluoro-piperidin-4-yl)-1,6-dihydro-1,3,5,6-tetraaza-as-indacen-2-yl]-ethyl}-amide], the Ki (JAK3) is reported as 181 nM, the Ki (JAK1) is reported as 5.72 nM and the Ki (JAK2) is reported as 44.7 nM. For the same compound, the Ki (TYK2) was 385 nM.
In the case of `COc1nc2cnc3[nH]ccc3c2n1C1CCN(CCC#N)CC1` [Example 655, 3-[4-(2-Methoxy-6H-1,2,3,5,6-tetraaza-as-indacen-1-yl)-piperidin-1-yl]-propionitrile], the Ki (JAK3) is reported as 15.9 nM, the Ki (JAK1) is reported as 0.46 nM and the Ki (JAK2) is reported as 1.08 nM. For the same compound, the Ki (TYK2) was 4.67 nM.
In the case of `OC1CCCC(n2cnc3cnc4[nH]ccc4c32)C1` (single isomer, unassigned) [Example 560, 3-(6H-1,3,5,6-Tetraaza-as-indacen-1-yl)-cyclohexanol], the Ki (JAK3) is reported as 37.5 nM, the Ki (JAK1) is reported as 8.14 nM and the Ki (JAK2) is reported as 13.2 nM. It also gave a Ki (TYK2) of 47.3 nM.
In the case of `CC(O)c1nc2cnc3[nH]ccc3c2n1C1CC2CCC(C1)N2` (stereo not drawn) [Example 919, 1-[1-(8-Aza-bicyclo[3.2.1]oct-3-yl)-1,6-dihydro-1,3,5,6-tetraaza-as-indacen-2-yl]-ethanol], the Ki (JAK3) is reported as 476 nM, the Ki (JAK1) is reported as 10.6 nM and the Ki (JAK2) is reported as 437 nM. For the same compound, the Ki (TYK2) was 264 nM.
With `CC(C1CCCO1)n1cnc2cnc3[nH]ccc3c21` (single isomer, unassigned) [Example 417, 1-[1-(Tetrahydro-furan-2-yl)-ethyl]-1,6-dihydro-1,3,5,6-tetraaza-as-indacene] the Ki (JAK3) was 43.1 nM, the Ki (JAK1) was 89.3 nM and the Ki (JAK2) was 74.1 nM. It also gave a Ki (TYK2) of 341 nM.
With `c1ccc(CN2CCC(n3c(C4CCC4)nc4cnc5[nH]ccc5c43)CC2)cc1` [Example 325, 1-(1-Benzyl-piperidin-4-yl)-2-cyclobutyl-1,6-dihydro-1,3,5,6-tetraaza-as-indacene] the Ki (JAK3) was 19.5 nM, the Ki (JAK1) was 5.3 nM and the Ki (JAK2) was 21.6 nM. The Ki (TYK2) was 1360 nM.
`COCC(=O)NCc1nc2cnc3[nH]ccc3c2n1C1CCN(CCC#N)CC1` [Example 503, N-{1-[1-(2-Cyano-ethyl)-piperidin-4-yl]-1,6-dihydro-1,3,5,6-tetraaza-as-indacen-2-ylmethyl}-2-methoxy-acetamide] was tested, and the Ki (JAK3) was 19.6 nM, the Ki (JAK1) was 2.54 nM and the Ki (JAK2) was 10.4 nM. It also gave a Ki (TYK2) of 50.5 nM.
`N#CCCN1CCC(n2c(CCC3CCCO3)nc3cnc4[nH]ccc4c32)CC1` (racemic) [Example 517, 3-(4-{2-[2-(Tetrahydro-furan-2-yl)-ethyl]-6H-1,3,5,6-tetraaza-as-indacen-1-yl}-piperidin-1-yl)-propionitrile] gave a Ki (JAK3) of 52.6 nM, a Ki (JAK1) of 10.3 nM and a Ki (JAK2) of 57.5 nM. It also gave a Ki (TYK2) of 294 nM.
Compound `O=C([C@H]1CC[C@H](n2nnc3cnc4[nH]ccc4c32)CC1)N1CCOCC1` [Example 246, Morpholin-4-yl-[4-(6H-1,2,3,5,6-pentaaza-as-indacen-1-yl)-cyclohexyl]-methanone] has a Ki (JAK3) of 652 nM, a Ki (JAK1) of 164 nM and a Ki (JAK2) of 183 nM. The Ki (TYK2) was 1620 nM.
